Assays:
ABUTH (Velvetleaf) [1] = experiment: Postemergence herbicidal evaluation; type: in vivo, Abutilon theophrasti
Procedure, shortened: (§1)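 Visual 0-9 injury score (stand, vigor, malformation, size, chlorosis, appearance vs untreated) taken four to five weeks post-spray, averaged across repeat tests. Test plants about two weeks old; foliar spray of acetone/water (1:1) with 0.5% surfactant delivering ~0.0156-0.500 kg active/ha.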

[2] = system: IPOHE (Morningglory, Ivyleaf); experiment: Postemergence herbicidal evaluation; type: in vivo, Ipomoea hederacea
Procedure, shortened: as §1

SETVI (Foxtail, Green) = experiment: Postemergence herbicidal evaluation; type: in vivo, Setaria viridis
Procedure, shortened: as §1

[3] = system: GLXMAW (Soybean, Williams); experiment: Postemergence herbicidal evaluation; type: in vivo, Glycine max, (L.) Merr. cv Williams
Procedure, shortened: as §1

ZEAMX (Corn, Field) = experiment: Postemergence herbicidal evaluation; type: in vivo, Zea mays
Procedure, shortened: as §1

ABUTH (Velvetleaf) [4] = experiment: Preemergence herbicidal evaluation; type: in vivo, Abutilon theophrasti; conditions: rated 4-5 weeks after treatment
Procedure, shortened: (§2)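 Each species is sown separately in potting soil over roughly an inch of soil before any emergence. The soil surface then receives an aqueous acetone spray delivering about 0.0156 to 0.500 kg/ha of compound. After four to five weeks, injury is scored from 0 to 9 relative to a control.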

AMBEL (Ragweed, Common) = experiment: Preemergence herbicidal evaluation; type: in vivo, Ambrosia artemisifolia; conditions: rated 4-5 weeks after treatment
Procedure, shortened: as §2

CASOB (Sicklepod) = experiment: Preemergence herbicidal evaluation; type: in vivo, Cassia obtusifolia; conditions: rated 4-5 weeks after treatment
Procedure, shortened: as §2

[5] = system: IPOHE (Morningglory, Ivyleaf); experiment: Preemergence herbicidal evaluation; type: in vivo, Ipomoea hederacea; conditions: rated 4-5 weeks after treatment
Procedure, shortened: as §2

ECHCG (Barnyardgrass) = experiment: Preemergence herbicidal evaluation; type: in vivo, Echinochloa crus-galli; conditions: rated 4-5 weeks after treatment
Procedure, shortened: as §2

[6] = system: ECHORC (Watergrass (Calif.)); experiment: Preemergence weed control under flooded paddy conditions; type: in vivo, Echinochloa oryzoides; conditions: rated 3-4 weeks after treatment
Procedure, shortened: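 Visual injury scored 0-9 against control three to four weeks post-treatment, greenhouse-grown. Application: acetone/water (50/50) solutions dosed directly into flood water (1.5-3 cm over silt loam, planted top 0.5 cm), roughly 0.0313 to 0.500 kg/ha active ingredient.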

CYPSE (Flatsedge) = experiment: as above; type: in vivo, Cyperus serotinus; conditions: rated 3-4 weeks after treatment
Procedure, shortened: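 Silt loam, seeds in top 0.5 cm; flood held 1.5-3 cm; test cpd as acetone/water 50/50 into flood water, ~0.0313-0.500 kg/ha a.i.; greenhouse 3-4 wk; visual 0-9 score vs control.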

[7] = system: ECHORC (Watergrass (Calif.)); experiment: Postemergence weed control under flooded paddy conditions; type: in vivo, Echinochloa oryzoides; conditions: postemergence weeds, 3-4 weeks after treatment
Procedure, shortened: (§3)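 Flood-water application, about 0.0313–0.500 kg/ha a.i. in aqueous/acetone 50/50 v/v; water depth 1.5–3 cm throughout. Weeds 3–5 cm, rice 1.5–2.5 leaf. Greenhouse; 0–9 visual rating vs control at 3–4 wk.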

CYPIR (Rice Flatsedge) = experiment: as above; type: in vivo, Cyperus iria; conditions: postemergence weeds, 3-4 weeks after treatment
Procedure, shortened: as §3

SMILES: CCOC(=O)CN1C(=O)CS(=O)(=O)C1=Nc1cc(-n2c(=O)cc(C(F)(F)F)n(C)c2=O)c(F)cc1Cl [Compound 46, 2-{{2-Chloro-5-[3,6-dihydro-3-methyl-2,6-dioxo-4-(trifluoromethyl)-1(2H)-pyrimidinyl]-4-fluoro-phenyl}imino}-4-oxo-3-thiazolidineacetic acid, ethyl ester, 1,1-dioxide]
- Postemergence herbicidal rating ABUTH (ABUTH (Velvetleaf) [1]; Rate 0.0313 kg/ha): 4.0
- Postemergence herbicidal rating ABUTH (ABUTH (Velvetleaf) [1]; Rate 0.0625 kg/ha): 9.0
- Postemergence herbicidal rating IPOHE ([2]; Rate 0.0313 kg/ha): 3.0
- Postemergence herbicidal rating IPOHE ([2]; Rate 0.0625 kg/ha): 9.0
- Postemergence herbicidal rating SETVI (SETVI (Foxtail, Green); Rate 0.0313 kg/ha): 0.0
- Postemergence herbicidal rating SETVI (SETVI (Foxtail, Green); Rate 0.0625 kg/ha): 0.0
- Postemergence herbicidal rating GLXMAW ([3]; Rate 0.0313 kg/ha): 5.0
- Postemergence herbicidal rating GLXMAW ([3]; Rate 0.0625 kg/ha): 5.5
- Postemergence herbicidal rating ZEAMX (ZEAMX (Corn, Field); Rate 0.0313 kg/ha): 4.5
- Postemergence herbicidal rating ZEAMX (ZEAMX (Corn, Field); Rate 0.0625 kg/ha): 5.0
- Preemergence herbicidal rating ABUTH (ABUTH (Velvetleaf) [4]; rate 0.1250 kg/ha): 9.0
- Preemergence herbicidal rating ABUTH (ABUTH (Velvetleaf) [4]; rate 0.2500 kg/ha): 9.0
- Preemergence herbicidal rating AMBEL (AMBEL (Ragweed, Common); rate 0.1250 kg/ha): 1.0
- Preemergence herbicidal rating AMBEL (AMBEL (Ragweed, Common); rate 0.2500 kg/ha): 1.0
- Preemergence herbicidal rating CASOB (CASOB (Sicklepod); rate 0.1250 kg/ha): 0.0
- Preemergence herbicidal rating CASOB (CASOB (Sicklepod); rate 0.2500 kg/ha): 0.0
- Preemergence herbicidal rating IPOHE ([5]; rate 0.1250 kg/ha): 0.0
- Preemergence herbicidal rating IPOHE ([5]; rate 0.2500 kg/ha): 1.0
- Preemergence herbicidal rating ECHCG (ECHCG (Barnyardgrass); rate 0.1250 kg/ha): 0.0
- Preemergence herbicidal rating ECHCG (ECHCG (Barnyardgrass); rate 0.2500 kg/ha): 0.0
- Herbicidal rating ECHORC ([6]; 0.0313 kg/ha): 0.0
- Herbicidal rating ECHORC ([6]; 0.0625 kg/ha): 0.0
- Herbicidal rating ECHORC ([6]; 0.1250 kg/ha): 0.0
- Herbicidal rating ECHORC ([6]; 0.2500 kg/ha): 4.0
- Herbicidal rating CYPSE (CYPSE (Flatsedge); 0.0313 kg/ha): 0.0
- Herbicidal rating CYPSE (CYPSE (Flatsedge); 0.0625 kg/ha): 0.0
- Herbicidal rating CYPSE (CYPSE (Flatsedge); 0.1250 kg/ha): 0.0
- Herbicidal rating CYPSE (CYPSE (Flatsedge); 0.2500 kg/ha): 6.0
- Herbicidal rating ECHORC ([7]; rate 0.0313 kg/ha): 0.0
- Herbicidal rating ECHORC ([7]; rate 0.0625 kg/ha): 0.0
- Herbicidal rating ECHORC ([7]; rate 0.1250 kg/ha): 0.0
- Herbicidal rating ECHORC ([7]; rate 0.2500 kg/ha): 4.0
- Herbicidal rating CYPIR (CYPIR (Rice Flatsedge); rate 0.0313 kg/ha): 0.0
- Herbicidal rating CYPIR (CYPIR (Rice Flatsedge); rate 0.0625 kg/ha): 0.0
- Herbicidal rating CYPIR (CYPIR (Rice Flatsedge); rate 0.1250 kg/ha): 0.0
- Herbicidal rating CYPIR (CYPIR (Rice Flatsedge); rate 0.2500 kg/ha): 0.0

SMILES: CCOC(=O)CN1C(=O)C(CCO)S/C1=N/c1cc(-n2c(=O)cc(C(F)(F)F)n(C)c2=O)c(F)cc1Cl (stereo not drawn) [Compound 49, Ethyl 2-{{2-chloro-5-[3,6-dihydro-3-methyl-2,6-dioxo-4-(trifluoromethyl)-1(2H)-pyrimidinyl]-4-fluorophenyl}imino}-5-(hydroxyethyl)-4-oxo-3-thiazolidineacetate]
- Postemergence herbicidal rating ABUTH (ABUTH (Velvetleaf) [1]; Rate 0.0313 kg/ha): 9.0
- Postemergence herbicidal rating ABUTH (ABUTH (Velvetleaf) [1]; Rate 0.0625 kg/ha): 9.0
- Postemergence herbicidal rating ABUTH (ABUTH (Velvetleaf) [1]; rate 0.0156 kg/ha): 9.0
- Postemergence herbicidal rating IPOHE ([2]; Rate 0.0313 kg/ha): 9.0
- Postemergence herbicidal rating IPOHE ([2]; Rate 0.0625 kg/ha): 9.0
- Postemergence herbicidal rating IPOHE ([2]; rate 0.0156 kg/ha): 9.0
- Postemergence herbicidal rating SETVI (SETVI (Foxtail, Green); Rate 0.0313 kg/ha): 4.0
- Postemergence herbicidal rating SETVI (SETVI (Foxtail, Green); Rate 0.0625 kg/ha): 7.0
- Postemergence herbicidal rating SETVI (SETVI (Foxtail, Green); rate 0.0156 kg/ha): 3.0
- Postemergence herbicidal rating GLXMAW ([3]; Rate 0.0313 kg/ha): 7.5
- Postemergence herbicidal rating GLXMAW ([3]; Rate 0.0625 kg/ha): 8.0
- Postemergence herbicidal rating GLXMAW ([3]; rate 0.0156 kg/ha): 7.5
- Postemergence herbicidal rating ZEAMX (ZEAMX (Corn, Field); Rate 0.0313 kg/ha): 5.5
- Postemergence herbicidal rating ZEAMX (ZEAMX (Corn, Field); Rate 0.0625 kg/ha): 6.0
- Postemergence herbicidal rating ZEAMX (ZEAMX (Corn, Field); rate 0.0156 kg/ha): 5.0
- Preemergence herbicidal rating ABUTH (ABUTH (Velvetleaf) [4]; rate 0.0156 kg/ha): 9.0
- Preemergence herbicidal rating ABUTH (ABUTH (Velvetleaf) [4]; rate 0.0313 kg/ha): 9.0
- Preemergence herbicidal rating ABUTH (ABUTH (Velvetleaf) [4]; rate 0.0625 kg/ha): 9.0
- Preemergence herbicidal rating ABUTH (ABUTH (Velvetleaf) [4]; rate 0.1250 kg/ha): 9.0
- Preemergence herbicidal rating ABUTH (ABUTH (Velvetleaf) [4]; rate 0.2500 kg/ha): 9.0
- Preemergence herbicidal rating AMBEL (AMBEL (Ragweed, Common); rate 0.0156 kg/ha): 0.0
- Preemergence herbicidal rating AMBEL (AMBEL (Ragweed, Common); rate 0.0313 kg/ha): 0.0
- Preemergence herbicidal rating AMBEL (AMBEL (Ragweed, Common); rate 0.0625 kg/ha): 9.0
- Preemergence herbicidal rating AMBEL (AMBEL (Ragweed, Common); rate 0.1250 kg/ha): 9.0
- Preemergence herbicidal rating AMBEL (AMBEL (Ragweed, Common); rate 0.2500 kg/ha): 9.0
- Preemergence herbicidal rating CASOB (CASOB (Sicklepod); rate 0.0156 kg/ha): 0.0
- Preemergence herbicidal rating CASOB (CASOB (Sicklepod); rate 0.0313 kg/ha): 3.0
- Preemergence herbicidal rating CASOB (CASOB (Sicklepod); rate 0.1250 kg/ha): 3.0
- Preemergence herbicidal rating CASOB (CASOB (Sicklepod); rate 0.2500 kg/ha): 9.0
- Preemergence herbicidal rating IPOHE ([5]; rate 0.0156 kg/ha): 0.0
- Preemergence herbicidal rating IPOHE ([5]; rate 0.0313 kg/ha): 0.0
- Preemergence herbicidal rating IPOHE ([5]; rate 0.0625 kg/ha): 2.0
- Preemergence herbicidal rating IPOHE ([5]; rate 0.1250 kg/ha): 9.0
- Preemergence herbicidal rating IPOHE ([5]; rate 0.2500 kg/ha): 9.0
- Preemergence herbicidal rating ECHCG (ECHCG (Barnyardgrass); rate 0.0156 kg/ha): 0.0
- Preemergence herbicidal rating ECHCG (ECHCG (Barnyardgrass); rate 0.0313 kg/ha): 0.0
- Preemergence herbicidal rating ECHCG (ECHCG (Barnyardgrass); rate 0.0625 kg/ha): 0.0
- Preemergence herbicidal rating ECHCG (ECHCG (Barnyardgrass); rate 0.1250 kg/ha): 0.0
- Preemergence herbicidal rating ECHCG (ECHCG (Barnyardgrass); rate 0.2500 kg/ha): 3.0
- Herbicidal rating ECHORC ([6]; 0.0313 kg/ha): 0.0
- Herbicidal rating ECHORC ([6]; 0.0625 kg/ha): 2.0
- Herbicidal rating ECHORC ([6]; 0.1250 kg/ha): 5.0
- Herbicidal rating ECHORC ([6]; 0.2500 kg/ha): 7.0
- Herbicidal rating CYPSE (CYPSE (Flatsedge); 0.0313 kg/ha): 2.0
- Herbicidal rating CYPSE (CYPSE (Flatsedge); 0.0625 kg/ha): 3.0
- Herbicidal rating CYPSE (CYPSE (Flatsedge); 0.2500 kg/ha): 4.0
- Herbicidal rating ECHORC ([7]; rate 0.0313 kg/ha): 0.0
- Herbicidal rating ECHORC ([7]; rate 0.0625 kg/ha): 2.0
- Herbicidal rating ECHORC ([7]; rate 0.1250 kg/ha): 5.0
- Herbicidal rating ECHORC ([7]; rate 0.2500 kg/ha): 7.0
- Herbicidal rating CYPIR (CYPIR (Rice Flatsedge); rate 0.0313 kg/ha): 0.0
- Herbicidal rating CYPIR (CYPIR (Rice Flatsedge); rate 0.0625 kg/ha): 0.0
- Herbicidal rating CYPIR (CYPIR (Rice Flatsedge); rate 0.1250 kg/ha): 2.0
- Herbicidal rating CYPIR (CYPIR (Rice Flatsedge); rate 0.2500 kg/ha): 7.0

From patent US20020137929A1, “1 - (3-heterocyclylphenyl) isothiourea, -isourea, -guanidine and -amidine herbicidal agents” (Intellectual Property Department, BASF Aktiengesellschaft, priority 1998, published 2002)
